Key:
ERK = assay: LPS-induced ERK phosphorylation in BV2 cells (Western blot); type: cell-based; settings: 3 μM, 1 h pretreatment, LPS 1 μg/mL 24 h
Experimental: (§1) CU-19, CU-21 and LPS were configured with DMEM medium (2% FBS). The cells were collected and washed three times with ice-cold PBS. The lysate (containing 1% protease inhibitor and phosphatase inhibitor) was added to the collected cells for suspension, and the cells were lysed by ultrasonic crusher. Then the cell lysates were centrifuged (14,000 rpm, 10 min, 4 °C) […] and collect the supernatant. Aliquots of the lysates were separated on 10% sodium dodecyl sulphate (SDS)-polyacrylamide gel electrophoresis (PAGE) and then electro blotted onto a polyvinylidene difluoride (PVDF) membrane. The blots were blocked with 5% (w/v) nonfat dry milk for 2 h at room temperature, followed by incubation with specific primary antibodies at 4 °C overnight. Blots were washed with PBST and incubated with secondary antibody for 2 h, after which an ECL reagent was used for chemiluminescent detection.

p38 = assay: LPS-induced p38 phosphorylation in BV2 cells (Western blot); type: cell-based; settings: 3 μM, 1 h pretreatment, LPS 1 μg/mL 24 h
Experimental: as §1

[1] = In vivo pharmacokinetic study in rats; parameters: species or system Sprague–Dawley male rats; settings: for AUC(0-inf) / AUC(0-t) / Cmax / half-life / MRT last / MRT inf: male, Sprague-Dawley, rat plasma, mean ± SD, n = 4; for MRT last: read-out: MRT (0-t) (converted); for MRT inf: read-out: MRT (0-∞) (converted)
Experimental: After a single intravenous dose of 20 mg/kg, 0.5 mL of blood was obtained from the fossa orbitalis veniplex of rats at 5, 10, 20, 30, 45, 60, 120, 180 and 240 min. HPLC was used to determine the concentration of each compound in plasma and the DAS software was used for the noncompartmental pharmacokinetic analysis of the plasma concentration–time data.
Sprague–Dawley male rats, 200–240 g, were housed in cages in an airconditioned room with light dark cycle of 12 h before the experiment started. The animals were fasted for 12 h with water ad libitum. […] The administration volume was 6 mL per kg of body weight. The compounds were dissolved in PEG400 (10% of the administration volume) and water (90% of the administration volume) and sonicated for 30 min. After tail vein injection administration at a dose of 20 mg/kg, 0.5 mL blood was obtained from fossa orbitalis veniplex of rats at 5, 10, 20, 30, 45, 60, 120, 180 and 240 min. Whole blood samples were collected in heparinized tubes and the plasma was immediately centrifuged (10,000 rpm, 10 min, 4 °C) and then stored at −20 °C until analysis. The calibration standards and the plasma samples were extracted by protein precipitation using methanol.

JNK = assay: LPS-induced JNK phosphorylation in BV2 cells (Western blot); type: cell-based; settings: 3 μM, 1 h pretreatment, LPS 1 μg/mL 24 h
Experimental: as §1

[2] = MTT cell viability assay in BV2 microglia cells; type: cell-based; settings: mouse, mean ± SD, n = 3
Experimental: (§2) The BV2 microglial cells were purchased from the China Center for Type Culture Collection, CCTCC (Wuhan, Hubei). BV2 microglia cells were incubated in DMEM media supplemented with 10% (v/v) FBS, 100 U/mL penicillin G and […] streptomycin at 37 °C with 5% CO2.
Cell viability assays were evaluated using a 3-(4,5-dimethylthiazol-2-yl)-2,5-diphenyltetrazolium bromide (MTT) assay. BV2 microglia cells were seeded in 96-well plates at a density of 1.6 × 10^5 cells/well in complete medium and incubated for 24 h. Then, the culture medium was sucked and discarded, and sterile PBS was added for washing, and then PBS was removed. Then the cells were treated with different concentrations of target compounds for 24 h. An amount equal to 100 μL of MTT was added to each well and the cells were further incubated for 2–4 h. An amount equal to 150 μL of DMSO was added into a 96-well plate and vibrated with micro-oscillator for 10 min. The optical density (A) was measured at […] on a microplate reader. The inhibitory rate of the various concentrations of agents in BV2 cells was calculated using the following formula:Cell viability (%) = [A492 (sample) − A492 (blank)]/[A492 (control) − A492 (blank)] × 100%

[3] = system: LPS-induced NO release in BV2 cells; assay: Inhibition of LPS-induced NO release in BV2 cells; type: cell-based; settings: Mus musculus, BV-2; for inhibition at 3 µM: pretreated 1 h, then LPS 1 μg/mL for 24 h, BV2 cells; for IC50: BV2 cells, 0.3, 1.0, 3.0 μM, LPS 1 μg/mL 24 h, mean ± SD, n = 3, read-out: IC50 to inhibit LPS-induced NO release
Experimental: as §2
Nitrite, a stable product of nitric oxide, was used to assess NO production. To study the effects of the compounds on NO production, BV2 microglia cells in the logarithmic phase were plated at 1 × 10^5 cells/well in a 24-well microplate and incubated in DMEM medium (10% FBS) overnight. The cells were pretreated with various concentrations of the test compounds for 1 h and further co-cultured with 1 μg/mL LPS and 5% CO2 for 24 h in a 37 °C incubator; then, the supernatant was taken and stored at −20 °C for NO detection. The target compound and LPS were configured with DMEM medium (2% FBS). The determination of NO was carried out according to the instructions. Unpretreated and unstimulated BV2 microglia cells were conducted as the blank control group. The absorbance value was determined at 540 nm, and the corresponding NO content was calculated by using the standard curve. The NO inhibitory rate of the various concentrations of agents in BV2 cells was calculated as per the following formula:Inhibition rate (%) = (LPS(NO concentration) − sample(NO concentration))/(LPS(NO concentration) − negative control(NO concentration)) × 100%.

TNF-α = assay: LPS-induced TNF-α release in BV2 cells (ELISA); type: cell-based, mouse; settings: 3 µM, 1 h pretreatment, LPS 1 μg/mL 24 h, vs. LPS alone
Experimental: (§3) BV2 microglia cells were seeded at 1 × 10^5 cells/well in a 24-well microplate and incubated overnight. […] CU-19, CU-21 and LPS were configured with DMEM medium (2% FBS). According to the protocol of the manufacturer, supernatant was harvested at the 24th hour for the assay of IL-6, TNF-α and PGE-2 with ELISA kits (Absin Shanghai, China). Briefly, 100 μL of biotinylated antibody reagent and the culture supernatant were added to anti-mouse IL-6, TNF-α and PGE-2-precoated 96-well plates, and the plates were incubated for 2.5 h at room temperature. The plate was washed with a washing buffer and subsequently incubated with 100 μL of the streptavidin–HRP solution for 20 min at room temperature. The plate was washed and incubated with 100 μL of TMB substrate solution for 20 min at room temperature in the dark. The reaction was stopped by adding 50 μL of stop solution, and then the absorbance was measured at 450 nm by a plate reader. The average value was substituted into the standard curve to obtain the […] concentration.

iNOS = assay: LPS-induced iNOS expression in BV2 cells (Western blot); type: cell-based; settings: 3 μM, 1 h pretreatment, LPS 1 μg/mL 24 h
Experimental: as §1

COX-2 = assay: LPS-induced COX-2 expression in BV2 cells (Western blot); type: cell-based; settings: 3 μM, 1 h pretreatment, LPS 1 μg/mL 24 h
Experimental: as §1

NF-κB = assay: LPS-induced NF-κB nuclear translocation in BV2 cells (immunofluorescence); type: cell-based; settings: 3 μM with LPS, 24 h
Experimental: CU-19, CU-21 and LPS were configured with DMEM medium (2% FBS). After 24 h of treatment, cells were fixed with 4% paraformaldehyde for 18 min and washed three times with PBS (5 min per wash). The fixed cells were then permeabilized in […] for 15 min and washed three times with PBS (5 min per wash). Nonspecific binding sites were blocked with 5% goat serum for 30 min. These cells were then incubated with anti-NF-κB antibody at a dilution of 1:400 overnight at 4 °C. After washing with PBS three times, cells were incubated with fluorescent-conjugated secondary antibody (1:150) for 1 h, and counterstained with DAPI (1:50) at room temperature for 15 min in the dark. Cells were then washed and imaged via confocal microscopy.

PGE-2 = assay: LPS-induced PGE-2 release in BV2 cells (ELISA); type: cell-based, mouse; settings: 3 µM, 1 h pretreatment, LPS 1 μg/mL 24 h, vs. LPS alone
Experimental: as §3

IL-6 = assay: LPS-induced IL-6 release in BV2 cells (ELISA); type: cell-based, mouse; settings: 3 µM, 1 h pretreatment, LPS 1 μg/mL 24 h, vs. LPS alone
Experimental: as §3

[4] = single intravenous dose 20 mg/kg

Row | Structure (SMILES) | viability at 24 h, 1 µM [2] | viability at 24 h, 3 µM [2] | viability at 24 h, 10 µM [2] | inhibition at 3 µM [3] | melting point | also measured
1 | COc1cc(/C=C/C(=O)CC(=O)/C=C/c2ccc(O)c(OC)c2)ccc1O [CU, curcumin, reference compound] | 97.57 ± 0.05% | 95.26 ± 0.05% | 28.15 ± 0.19% | 37.4% |  | ERK phosphorylation compared to the LPS group (ERK): inhibited; p38 phosphorylation compared to the LPS group (p38): inhibited; AUC(0-inf) [1, 4]: 678 ng·h/mL; AUC(0-t) [1, 4]: 652 ng·h/mL; Cmax [1, 4]: 2450 ± 132 ng/mL; half-life [1, 4]: 24.7 ± 16.9 min; MRT last [1, 4]: 14.1 min; MRT inf [1, 4]: 20.5 min; JNK phosphorylation compared to the LPS group (JNK): inhibited; IC50 [3]: > 3000 nM
2 | O=C(/C=C/CCc1ccccc1)/C=C/c1cccc(O)c1 [CU-6, (1E,4E)-1-(3-hydroxyphenyl)-7-phenyl-1,4-heptadien-3-one] | 106.85 ± 0.1% | 100.07 ± 0.01% | 101.56 ± 0.03% | 22.1% | 94 to 96 °C | 
3 | COc1cc(CC/C=C/C(=O)/C=C/c2ccccc2)ccc1O [CU-26, (1E,4E)-7-(4-hydroxy-3-methoxyphenyl)-1-phenyl-1,4-heptadien-3-one] | 107.17 ± 0.07% | 96.83 ± 0.02% | 12.8 ± 0.14% | 37.6% | 72 to 74 °C | 
4 | O=C(/C=C/CCc1ccc(O)cc1)/C=C/c1ccccc1 [CU-25, (1E,4E)-7-(4-hydroxyphenyl)-1-phenyl-1,4-heptadien-3-one] | 128.6 ± 0.14% | 96.93 ± 0.01% | 20.3 ± 0.59% | 0% | 75 to 77 °C | 
5 | COc1ccc(/C=C/C(=O)/C=C/CCc2ccccc2)cc1OC [CU-19, (1E,4E)-1-(3,4-dimethoxyphenyl)-7-phenyl-1,4-heptadien-3-one] | 96.94 ± 0.03% | 96.33 ± 0.02% | 67.91 ± 0.37% | 50.3% |  | Inhibition of LPS-induced TNF-α release (TNF-α): significantly inhibited; ERK phosphorylation compared to the LPS group (ERK): significantly decreased; Inhibition of LPS-induced iNOS expression (iNOS): significantly inhibited; Inhibition of LPS-induced COX-2 expression (COX-2): significantly inhibited; p38 phosphorylation compared to the LPS group (p38): significantly decreased; Inhibition of LPS-induced NF-κB nuclear translocation (NF-κB): able to inhibit NF-κB nuclear translocation; Inhibition of LPS-induced PGE-2 release (PGE-2): significantly inhibited; Inhibition of LPS-induced IL-6 release (IL-6): significantly inhibited; AUC(0-inf) [1, 4]: 2220 ng·h/mL; AUC(0-t) [1, 4]: 1770 ng·h/mL; Cmax [1, 4]: 3330 ± 393 ng/mL; half-life [1, 4]: 135 ± 6.24 min; MRT last [1, 4]: 61.2 min; MRT inf [1, 4]: 127 min; Metabolites detected in plasma by HPLC ([1]; rat plasma after intravenous 20 mg/kg, chromatograms at 5, 10, 20 min (Figures S1–S9)): no obvious metabolites; Increase of T1/2 in comparison with that of CU ([1]; rat, single intravenous dose 20 mg/kg): 4.5 fold; JNK phosphorylation compared to the LPS group (JNK): significantly decreased; IC50 [3]: 1600 ± 310 nM
6 | COc1ccc(/C=C/C(=O)/C=C/CCc2ccccc2)cc1 [CU-3, (1E,4E)-7-phenyl-1-(4-methoxyphenyl)-1,4-heptadien-3-one] | 106.7 ± 0.14% | 101.55 ± 0.01% | 98.5 ± 0.01% | 35.2% | 48 to 50 °C | 
7 | COc1ccc(CC/C=C/C(=O)/C=C/c2ccc(O)cc2)cc1 [CU-13, (1E,4E)-1-(4-hydroxyphenyl)-7-(4-methoxyphenyl)-1,4-heptadien-3-one] | 109.5 ± 0.27% | 91.4 ± 0.32% | 28.5 ± 1.3% | 0% | 136 to 138 °C | 
